In ChEMBL document CHEMBL3507680, “University of Dundee, Gates Library screen for HepG2 cell viability”:

Test: Human HepG2 cell viability assay in 384 well format
Format: toxicity, cell-based
Parameters: dose 125 nL, time 70.5 hour; cytotoxicity at 70.5 h: concentration not given beside the values
Conditions: HepG2 cells, read-out: Inhibition

| Compound | cytotoxicity at 70.5 h [%] |
| --- | --- |
| Cc1nccc(-c2cccc(NCC(=O)N3CCc4sccc4C3)c2)n1 | 2.9 |
| CCc1ccccc1OC1CN(C(=O)CN(C)Cc2ccncc2)C1 | -8.04 |
| O=C(CC1CC1)N1Cc2nccn2CC(Cn2ncccc2=O)C1 (centres undefined) | -6.18 |
| O=S(=O)(C1CC1)N1C[C@@H]2CN(Cc3cccs3)CCO[C@@H]2C1 | 11.2 |
| CCOc1cc(CN(C)CC(=O)O)ccc1OC(F)F | 6.63 |
| Cc1cc(CNC(=O)c2ccc(C(C)N3CCCCC3)o2)[nH]n1 (centres undefined) | -5.86 |
| Cc1ccc(C(NC(=O)CC2CCN(C(C)C)CC2)C(=O)O)cc1 (centres undefined) | -3.16 |
| Cc1cccc(C)c1OC1CN(Cc2cnc(-c3ccco3)nc2)C1 | -6.4 |
| Cn1cc(CN2CCCC(c3nc(O)cc(-c4cccs4)n3)C2)cn1 (centres undefined) | -6.31 |
| O=c1[nH]c(C2CCOC2)nc2ccc(Br)cc12 (centres undefined) | -2.39 |
| O=C1CC(c2ccncc2)C2(CCN(CCO)CC2)N1 (centres undefined) | -10.4 |
| CCc1nc(C2CCCN(C(=O)C(C)(C)NS(C)(=O)=O)C2)no1 (centres undefined) | 0.741 |
| CCc1cnc(N2CCc3cc(C(=O)NC)c(N(C)C)nc3CC2)nc1 | -13.6 |
| COCc1cccc(S(=O)(=O)Nc2ncc(C)s2)c1 | -12.2 |
| CC(C)N1[C@H](Cn2cncn2)C[C@@H]2CN(Cc3ccsc3)CC[C@@H]21 | -2.74 |
| Cc1noc(C)c1CSCc1csc(CS(C)(=O)=O)n1 | 0.624 |
| O=C(CCNC(=O)C1CCCC1)NCc1ccccc1Cn1ccnc1 | -8.37 |
| COCCC1COC2(CCN(C(=O)CC3CCCC3)CC2)C1 (centres undefined) | -3.15 |
| Cn1cnnc1C1CCN(C(=O)COCc2ccccc2Cl)CC1 | -11.8 |
| CN(Cc1csc(-c2cccs2)n1)C(=O)CN1CCOC1=O | -3.58 |
| COCc1cc(NCCc2ccc(S(N)(=O)=O)cc2)n2nccc2n1 | -20.7 |
| CN(C)C(=O)[C@@H]1C[C@@H]2CCN(Cc3ccncc3)C[C@@H]2O1 | -11.6 |

| Compound | cytotoxicity at 70.5 h [%] |
| --- | --- |
| Cn1ccnc1CNC(=O)N(CCCO)C1CCCc2ccccc21 (centres undefined) | 21.5 |
| Cc1c(Cl)ccc2ccc(NC(CO)CO)nc12 | 6.75 |
| CNC(=O)C1Cc2ccccc2CN1CCc1cccs1 (centres undefined) | -8.64 |
| CN(C)[C@@H]1CCN(C(=O)Cc2ccc(F)cc2)[C@H]1Cc1cnn(C)c1 | -10.4 |
| Cc1cc(C2CCCN(C(=O)c3ccc(C)[nH]c3=O)C2)n[nH]1 (centres undefined) | -13.9 |
| O=C(NCCCOC1CCOC1)NC(C1CC1)C1CC1 (centres undefined) | 5.31 |
| Cc1cnc(N2CC[C@H]3[C@@H]2CCC(=O)N3c2cccnc2)nc1 | -2.59 |
| CN(C)c1cc(CNC(=O)CC2CCCCC2)ccn1 | -5.82 |
| Cc1nc(CNC(=O)Nc2ccc3c(c2)CCCN3C)sc1C | -0.336 |
| CC(=O)N1CCC(N2CCN3C(=O)N(Cc4ccccn4)C[C@H]3C2)CC1 | -1.05 |
| CCC[C@@H]1CN(C(=O)c2ccccc2-c2ccccc2)C[C@H]1N(C)C | 0.165 |
| FC(F)(F)c1ccc(CNC[C@H]2COCc3nc4cccnc4n32)cc1 | -3.68 |
| O=C(NCCNc1ncccn1)c1cnc(-c2ccccc2)nc1 | -2.38 |
| Cc1cnn(C2CCCN(C(=O)c3ccn(C)c(=O)c3)C2)c1 (centres undefined) | -11.3 |
| Cc1nnc(N(CCC#N)CCC#N)s1 | -5.52 |
| CC(C(=O)NCc1ccnc(N(C)C)c1)n1cncn1 (centres undefined) | -10.2 |
| COc1cccc(Cn2[nH]c(C)c3c(NC(=O)C(C)OC)nnc2-3)c1 (centres undefined) | -6.21 |
| COCC1CN(Cc2ccc(C)o2)Cc2ncn(CC3CC3)c21 (centres undefined) | -8.02 |
| O=C(NCCCn1nc2ccccn2c1=O)Nc1ccc(F)cc1F | -8.62 |
| COCCOc1ncccc1C(=O)N1CCCn2ncnc21 | -5.4 |
| CCN1C(=O)[C@H]2CN(CC(C)C)C[C@H]2C12CCN(S(C)(=O)=O)CC2 | -6.33 |
| c1nc2c(c(C3CC3)n1)CCN(CC1CCOC1)CC2 (centres undefined) | -13.3 |
